For assay [1], the system named is primary cultures of rat neonatal cortex (cultured cortical neurons). The format is cell-based.
The test system of a further assay is nAChR. As to conditions: cited from earlier work.

As for A-O-A-N-S-V*-W-S [gla-1], in assay [1], the “effect on Ca^++ flux in the cells” value is reported as “reducing Ca^++ flux” and the “modulation of Ca^++ flux in cultured neurons from rat cortex” value is “modulate Ca^++ flux”.

In the case of RDOCCYHPTCNMSNPQIC* [EI], the “Target: nAChR (subtype)” value in the assay with nAChR is recorded as “α1γ = α1δβ2 musc”.

For HOCCLYGK-CRRYOGCSSASASCCQR [ψPIIIE], the nAChR activity annotation entry in the assay with nAChR was “non comp. nAChR”.
